{"source": "patent US20120121540A1", "about": "(priority 2007, published 2012)"}
{"test": "HCV replicon assay (luciferase reporter, ET cell line)", "assay_type": "cell-based", "conditions": "Hepatitis C virus, HCV replicon luciferase activity in ET cells", "how_it_was_run": "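EC50 and, via WST-1 cytotoxicity, TC50 were fitted with a Hill-coefficient equation to % inhibition across 10 two-fold dilutions. Compounds at 0.1 nM-[…] with 0.5% DMSO were applied 24 h post-seeding to replicon-bearing ET cells (luc-ubi-neo/NS3-5B, adaptive mutations). Firefly luciferase signal was measured after 48-72 h.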", "units": {"inhibition at 10 µM": "%"}}
{"smiles": "O=C(c1nc2c(C(F)(F)F)cc(-c3ccccc3)cn2c1Br)N1CCC(c2cccc(F)c2)C1", "note": "(stereo not drawn) [Compound 640, (3-Bromo-6-phenyl-8-trifluoromethyl-imidazo[1,2-a]pyridin-2-yl)-[3-(3-fluoro-phenyl)-pyrrolidin-1-yl]-methanone]", "inhibition at 10 µM": 88.1}
{"smiles": "O=C(NCc1cccs1)c1cc2cc(-c3cn[nH]c3)cc(Cl)c2[nH]1", "note": "[Compound 347, 7-Chloro-5-(1H-pyrazol-4-yl)-1H-indole-2-carboxylic Acid (thiophen-2-ylmethyl)-amide]", "inhibition at 10 µM": 0.1}
{"smiles": "O=C(c1nc2c(C(F)(F)F)cc(-c3ccoc3)cn2c1Cl)N1CCC(Oc2ccccc2)C1", "note": "(stereo not drawn) [Compound 593, (3-Chloro-6-furan-3-yl-8-trifluoromethyl-imidazo[1,2-a]pyridin-2-yl)-(3-phenoxy-pyrrolidin-1-yl)-methanone]", "inhibition at 10 µM": 89.5}
{"smiles": "O=C(c1nc2c(C(F)(F)F)cc(-c3ccoc3)cn2c1Cl)N1CCC(c2ccncc2)C1", "note": "(stereo not drawn) [Compound 454, (3-Chloro-6-furan-3-yl-8-trifluoromethyl-imidazo[1,2-a]pyridin-2-yl)-(3-pyridin-4-yl-pyrrolidin-1-yl)-methanone]", "inhibition at 10 µM": 96.1}
{"smiles": "O=C(c1nc2c(C(F)(F)F)cc(-c3cn[nH]c3)cn2c1Cl)N1CCC(c2ccc(F)cc2)C1", "note": "(stereo not drawn) [Compound 238, [3-Chloro-6-(1H-pyrazol-4-yl)-8-trifluoromethyl-imidazo[1,2-a]pyridin-2-yl]-[3-(4-fluoro-phenyl)-pyrrolidin-1-yl]-methanone]", "inhibition at 10 µM": 86.9}
{"smiles": "O=C(c1nc2c(C(F)(F)F)cc(-c3ccoc3)cn2c1Cl)N1CCC=C(c2cscn2)C1", "note": "[Compound 589, (3-Chloro-6-furan-3-yl-8-trifluoromethyl-imidazo[1,2-a]pyridin-2-yl)-(5-thiazol-4-yl-3,6-dihydro-2H-pyridin-1-yl)-methanone]", "inhibition at 10 µM": 76}
{"smiles": "O=C(c1nc2c(C(F)(F)F)cc(-c3cn[nH]c3)cn2c1Cl)N1CC[C@@H](c2ccccc2)C1", "note": "[Compound 465, [3-Chloro-6-(1H-pyrazol-4-yl)-8-trifluoromethyl-imidazo[1,2-a]pyridin-2-yl]-(3-(S)-phenyl-pyrrolidin-1-yl)-methanone]", "inhibition at 10 µM": 97.9}
{"smiles": "CN1CCN(C(=O)c2nc3c(C(F)(F)F)cc(-c4ccco4)cn3c2Cl)CC1c1ccccc1", "note": "(stereo not drawn) [Compound 318, (3-Chloro-6-furan-2-yl-8-trifluoromethyl-imidazo[1,2-a]pyridin-2-yl)-(4-methyl-3-phenyl-piperazin-1-yl)-methanone]", "inhibition at 10 µM": 62.4}
{"smiles": "CS(=O)(=O)N1CC(NC(=O)c2nc3c(C(F)(F)F)cc(-c4ccoc4)cn3c2Cl)C1", "note": "[Compound 510, 3-Chloro-6-furan-3-yl-8-trifluoromethyl-imidazo[1,2-a]pyridine-2-carboxylic Acid (1-methanesulfonyl-azetidin-3-yl)-amide]", "inhibition at 10 µM": 24}
{"smiles": "Cn1cc(C2=CCN(C(=O)c3nc4c(C(F)(F)F)cc(-c5ccoc5)cn4c3Cl)CC2)cn1", "note": "[Compound 578, (3-Chloro-6-furan-3-yl-8-trifluoromethyl-imidazo[1,2-a]pyridin-2-yl)-[4-(1-methyl-1H-pyrazol-4-yl)-3,6-dihydro-2H-pyridin-1-yl)-methanone]", "inhibition at 10 µM": 97.2}
{"smiles": "CC(=O)Nc1nc(-c2cc(C(F)(F)F)c3nc(C(=O)N4CCC(c5cccc(F)c5)C4)c(Cl)n3c2)cs1", "note": "(stereo not drawn) [Compound 644, N-(4-{3-Chloro-2-[3-(3-fluoro-phenyl)-pyrrolidine-1-carbonyl]-8-trifluoromethyl-imidazo[1,2-a]pyridin-6-yl}-thiazol-2-yl)-acetamide]", "inhibition at 10 µM": 59.6}
{"smiles": "O=C(NCc1cccs1)c1nc2c(C(F)(F)F)cc(C3=CCCCC3)cn2c1Cl", "note": "[Compound 282, 3-Chloro-6-cyclohex-1-enyl-8-trifluoromethyl-imidazo[1,2-a]pyridine-2-carboxylic acid (thiophen-2-ylmethyl)-amide]", "inhibition at 10 µM": 97.6}
{"smiles": "O=C(Cc1nc2c(C(F)(F)F)cc(-c3ccoc3)cn2c1Cl)N1CCC(c2cccc(F)c2)C1", "note": "(stereo not drawn) [Compound 604, 2-[3-chloro-6-(furan-3-yl)-8-(trifluoromethyl)imidazo [1,2-a]pyridin-2-yl]-1-[3-(3-fluorophenyl)pyrrolidin-1-yl]ethanone]", "inhibition at 10 µM": 74.1}
{"smiles": "O=C(c1nc2c(C(F)(F)F)cc(-c3ccoc3)cn2c1Cl)N1CCCC1c1ccccn1", "note": "(stereo not drawn) [Compound 331, (3-Chloro-6-furan-3-yl-8-trifluoromethyl-imidazo[1,2-a]pyridin-2-yl)-(2-pyridin-2-yl-pyrrolidin-1-yl)-methanone]", "inhibition at 10 µM": 53.3}
{"smiles": "O=C(NCc1ccc(C(F)(F)F)cc1)c1nc2c(C(F)(F)F)cc(-c3ccco3)cn2c1Cl", "note": "[Compound 181, 3-Chloro-6-furan-2-yl-8-trifluoromethyl-imidazo[1,2-a]pyridine-2-carboxylic acid 4-trifluoromethyl-benzylamide]", "inhibition at 10 µM": 48.2}
{"smiles": "O=C(c1nc2c(C(F)(F)F)cc(-c3ccco3)cn2c1Cl)N1CCC(c2ccccc2)C1", "note": "(stereo not drawn) [Compound 186, (3-Chloro-6-furan-2-yl-8-trifluoromethyl-imidazo[1,2-a]pyridin-2-yl)-(3-phenyl-pyrrolidin-1-yl)-methanone]", "inhibition at 10 µM": 96}
{"smiles": "O=C(NCc1ccco1)c1cc2cc(-c3ccccc3)cc(I)n2n1", "note": "[Compound 124, 7-Iodo-5-phenyl-pyrazolo[1,5-a]pyridine-2-carboxylic Acid (furan-2-ylmethyl)-amide]", "inhibition at 10 µM": 54.3}
{"smiles": "CS(=O)(=O)N[C@@H]1CCN(C(=O)c2nc3c(C(F)(F)F)cc(-c4ccoc4)cn3c2Cl)C1", "note": "[Compound 480, N-[1-(3-Chloro-6-furan-3-yl-8-trifluoromethyl-imidazo[1,2-a]pyridine-2-carbonyl)-pyrrolidin-3-yl]-methanesulfonamide]", "inhibition at 10 µM": 47.7}
{"smiles": "O=C(NCc1cccnc1)c1nc2c(C(F)(F)F)cc(-c3ccco3)cn2c1Cl", "note": "[Compound 164, 3-Chloro-6-furan-2-yl-8-trifluoromethyl-imidazo[1,2-a]pyridine-2-carboxylic acid (pyridin-3-ylmethyl)-amide]", "inhibition at 10 µM": 70.1}
{"smiles": "O=C(NCc1ccccc1OC(F)(F)F)c1nc2c(C(F)(F)F)cc(-c3ccco3)cn2c1Cl", "note": "[Compound 202, 3-Chloro-6-furan-2-yl-8-trifluoromethyl-imidazo[1,2-a]pyridine-2-carboxylic acid 2-trifluoromethoxy-benzylamide]", "inhibition at 10 µM": 78.1}
{"smiles": "O=C(c1nc2c(C(F)(F)F)cc(-c3ccoc3)cn2c1Cl)N1CC=C(c2ccoc2)C1", "note": "[Compound 429, (3-Chloro-6-furan-3-yl-8-trifluoromethyl-imidazo[1,2-a]pyridin-2-yl)-(3-furan-3-yl-2,5-dihydro-pyrrol-1-yl)-methanone]", "inhibition at 10 µM": 98}
{"smiles": "O=C(c1nc2c(C(F)(F)F)cc(-c3ccoc3)cn2c1Cl)N1CC[C@@H](c2ccccc2)C1", "note": "[Compound 262, (3-Chloro-6-furan-3-yl-8-trifluoromethyl-imidazo[1,2-a]pyridin-2-yl)-(3-(S)-phenyl-pyrrolidin-1-yl)-methanone]", "inhibition at 10 µM": 97.3}
{"smiles": "O=C(c1nc2c(C(F)(F)F)cc(-c3ccoc3)cn2c1Cl)N1CCN(c2cnccn2)CC1", "note": "[Compound 537]", "inhibition at 10 µM": 61}
{"smiles": "N#Cc1c(F)cccc1C1=CCN(C(=O)c2nc3c(C(F)(F)F)cc(-c4ccoc4)cn3c2Cl)CC1", "note": "[Compound 614, 2-[1-(3-Chloro-6-furan-3-yl-8-trifluoromethyl-imidazo[1,2-a]pyridine-2-carbonyl)-1,2,3,6-tetrahydro-pyridin-4-yl]-6-fluoro-benzonitrile]", "inhibition at 10 µM": 89.7}
{"smiles": "CN(Cc1cccs1)C(=O)c1cn2cc(-c3ccco3)cc(C(F)(F)F)c2n1", "note": "[Compound 146, 6-Furan-2-yl-8-trifluoromethylimidazo[1,2-a]pyridine-2-carboxylic Acid Methyl-thiophen-2-ylmethyl-amide]", "inhibition at 10 µM": 35.1}
{"smiles": "O=C(c1nc2c(C(F)(F)F)cc(-c3ccco3)cn2c1Cl)N1CCc2ccccc21", "note": "[Compound 380, (3-Chloro-6-furan-2-yl-8-trifluoromethyl-imidazo[1,2-a]pyridin-2-yl)-(2,3-dihydro-indol-1-yl)-methanone]", "inhibition at 10 µM": 20.2}
{"smiles": "O=C(c1nc2c(C(F)(F)F)cc(-c3ccco3)cn2c1Cl)N1CCCC1c1cccs1", "note": "(stereo not drawn) [Compound 189, (3-Chloro-6-furan-2-yl-8-trifluoromethyl-imidazo[1,2-a]pyridin-2-yl)-(2-thiophen-2-yl-pyrrolidin-1-yl)-methanone]", "inhibition at 10 µM": 97.3}
{"smiles": "O=C(NCCc1cccs1)c1cc2cc(-c3ccccc3)cc(I)n2n1", "note": "[Compound 125, 7-Iodo-5-phenyl-pyrazolo[1,5-a]pyridine-2-carboxylic Acid (2-thiophen-2-yl-ethyl)-amide]", "inhibition at 10 µM": 48}
{"smiles": "O=C(c1nc2c(C(F)(F)F)cc(-c3ccoc3)cn2c1Cl)N1CC=C(OS(=O)(=O)C(F)(F)F)CC1", "note": "[Compound 574, Trifluoro-methanesulfonic Acid 1-(3-chloro-6-furan-3-yl-8-trifluoromethyl-imidazo[1,2-a]pyridine-2-carbonyl)-1,2,3,6-tetrahydro-pyridin-4-yl Ester]", "inhibition at 10 µM": 79.1}
{"smiles": "O=C(c1nc2c(C(F)(F)F)cc(-c3ccoc3)cn2c1Cl)N1CCN(c2noc3ccccc23)CC1", "note": "[Compound 551, (4-Benzo[d]isoxazol-3-yl-piperazin-1-yl)-(3-Chloro-6-furan-3-yl-8-trifluoromethyl-imidazo[1,2-a]pyridine-2-yl)-methanone]", "inhibition at 10 µM": 38.5}
{"smiles": "O=C(Cc1ccccc1)NCc1cn2cc(-c3ccoc3)cc(C(F)(F)F)c2n1", "note": "[Compound 390, N-(6-Furan-3-yl-8-trifluoromethyl-imidazo[1,2-a]pyridin-2-ylmethyl)-2-phenyl-acetamide]", "inhibition at 10 µM": 95.8}
{"smiles": "O=C(c1nc2c(C(F)(F)F)cc(-c3cn[nH]c3)cn2c1Cl)N1CC=C(c2ncccc2F)C1", "note": "[Compound 592]", "inhibition at 10 µM": 97.1}
{"smiles": "O=C(c1nc2c(C(F)(F)F)cc(-c3cccc(F)c3)cn2c1Cl)N1CCC(c2ccc(F)cc2)C1", "note": "(stereo not drawn) [Compound 234, [3-Chloro-6-(3-fluoro-phenyl)-8-trifluoromethyl-imidazo[1,2-a]pyridin-2-yl]-[3-(4-fluoro-phenyl)-pyrrolidin-1-yl]-methanone]", "inhibition at 10 µM": 81.8}
